Like-named read-outs stand apart in the source and are kept apart here.
How the values were obtained:
Assay type in all cases: in vivo
[1] = test system: Kochia (Kochia scoparia); experiment: Test A preemergence; conditions: Bassia scoparia, pre-emergence, 240 h; for pest or weed control at 125 g/ha: 125 g ai/ha, Preemergence, visual injury rating after approximately 10 d, read-out: Kochia plant response rating (0 to 100 scale, 0 is no effect, 100 is complete control); for pest or weed control at 500 g/ha: 500 g ai/ha, preemergence, visual injury rating about 10 d after treatment, 0 to 100 scale (0 no effect, 100 complete control), read-out: Kochia plant response rating
Method in brief: (§1)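 Greenhouse, ~10 d after spray; visual injury vs untreated controls, 0 = no effect, 100 = complete control. Preemergence: directed soil spray over planted seeds. Postemergence: plants 2–10 cm, 1–2 leaf stage. Loam/sand blend. Compound in non-phytotoxic solvent with surfactant.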

[2] = test system: barnyardgrass (Echinochloa crus-galli); experiment: Test A preemergence; conditions: Echinochloa crus-galli, pre-emergence, 240 h; for pest or weed control at 125 g/ha: 125 g ai/ha, Preemergence, visual injury rating after approximately 10 d, read-out: Barnyardgrass plant response rating (0 to 100 scale, 0 is no effect, 100 is complete control); for pest or weed control at 500 g/ha: 500 g ai/ha, preemergence, visual injury rating about 10 d after treatment, 0 to 100 scale (0 no effect, 100 complete control), read-out: Barnyardgrass plant response rating
Method in brief: as §1

[3] = test system: giant foxtail (Setaria faberii); experiment: Test A preemergence; conditions: Setaria faberi, pre-emergence, 240 h; for pest or weed control at 125 g/ha: 125 g ai/ha, Preemergence, visual injury rating after approximately 10 d, read-out: Foxtail, Giant plant response rating (0 to 100 scale, 0 is no effect, 100 is complete control); for pest or weed control at 500 g/ha: 500 g ai/ha, preemergence, visual injury rating about 10 d after treatment, 0 to 100 scale (0 no effect, 100 complete control), read-out: Foxtail, Giant plant response rating
Method in brief: as §1

[4] = test system: pigweed (Amaranthus retroflexus); experiment: Test A preemergence; conditions: Amaranthus retroflexus, pre-emergence, 240 h; for pest or weed control at 125 g/ha: 125 g ai/ha, Preemergence, visual injury rating after approximately 10 d, read-out: Pigweed plant response rating (0 to 100 scale, 0 is no effect, 100 is complete control); for pest or weed control at 500 g/ha: 500 g ai/ha, preemergence, visual injury rating about 10 d after treatment, 0 to 100 scale (0 no effect, 100 complete control), read-out: Pigweed plant response rating
[5] = test system: ragweed (common ragweed, Ambrosia elatior); experiment: Test A preemergence; conditions: Ambrosia artemisiifolia, pre-emergence, 240 h; for pest or weed control at 125 g/ha: 125 g ai/ha, Preemergence, visual injury rating after approximately 10 d, read-out: Ragweed plant response rating (0 to 100 scale, 0 is no effect, 100 is complete control); for pest or weed control at 500 g/ha: 500 g ai/ha, preemergence, visual injury rating about 10 d after treatment, 0 to 100 scale (0 no effect, 100 complete control), read-out: Ragweed plant response rating
Method in brief: as §1

[6] = test system: ryegrass, Italian (Italian ryegrass, Lolium multiflorum); experiment: Test A preemergence; conditions: Lolium multiflorum, pre-emergence, 240 h; for pest or weed control at 125 g/ha: 125 g ai/ha, Preemergence, visual injury rating after approximately 10 d, read-out: Ryegrass, Italian plant response rating (0 to 100 scale, 0 is no effect, 100 is complete control); for pest or weed control at 500 g/ha: 500 g ai/ha, preemergence, visual injury rating about 10 d after treatment, 0 to 100 scale (0 no effect, 100 complete control), read-out: Ryegrass, Italian plant response rating
Method in brief: as §1

[7] = test system: Galium (catchweed bedstraw, Galium aparine); experiment: Test A postemergence; conditions: Galium, post-emergence, 240 h, 125 g ai/ha, Postemergence; visual injury after approximately 10 d; 0 to 100 scale where 0 is no effect and 100 is complete control; read-out: Plant response rating, Galium
Method in brief: as §1

[8] = test system: Kochia (Kochia scoparia); experiment: Test A postemergence; conditions: Bassia scoparia, post-emergence, 240 h, 125 g ai/ha, Postemergence; visual injury after approximately 10 d; 0 to 100 scale where 0 is no effect and 100 is complete control; read-out: Plant response rating, Kochia
Method in brief: as §1

[9] = test system: barnyardgrass (Echinochloa crus-galli); experiment: Test A postemergence; conditions: Echinochloa crus-galli, post-emergence, 240 h, 125 g ai/ha, Postemergence; visual injury after approximately 10 d; 0 to 100 scale where 0 is no effect and 100 is complete control; read-out: Plant response rating, Barnyardgrass
Method in brief: as §1

[10] = test system: blackgrass (Alopecurus myosuroides); experiment: Test A postemergence; conditions: Alopecurus myosuroides, post-emergence, 240 h, 125 g ai/ha, Postemergence; visual injury after approximately 10 d; 0 to 100 scale where 0 is no effect and 100 is complete control; read-out: Plant response rating, Blackgrass
Method in brief: as §1

[11] = test system: corn (Zea mays); experiment: Test A postemergence; conditions: Zea mays, post-emergence, 240 h, 125 g ai/ha, Postemergence; visual injury after approximately 10 d; 0 to 100 scale where 0 is no effect and 100 is complete control
Method in brief: as §1

[12] = test system: giant foxtail (Setaria faberii); experiment: Test A postemergence; conditions: Setaria faberi, post-emergence, 240 h, 125 g ai/ha, Postemergence; visual injury after approximately 10 d; 0 to 100 scale where 0 is no effect and 100 is complete control; read-out: Plant response rating, Foxtail, Giant
Method in brief: as §1

[13] = test system: pigweed (Amaranthus retroflexus); experiment: Test A postemergence; conditions: Amaranthus retroflexus, post-emergence, 240 h, 125 g ai/ha, Postemergence; visual injury after approximately 10 d; 0 to 100 scale where 0 is no effect and 100 is complete control; read-out: Plant response rating, Pigweed
Method in brief: as §1

[14] = test system: ragweed (common ragweed, Ambrosia elatior); experiment: Test A postemergence; conditions: Ambrosia artemisiifolia, post-emergence, 240 h, 125 g ai/ha, Postemergence; visual injury after approximately 10 d; 0 to 100 scale where 0 is no effect and 100 is complete control; read-out: Plant response rating, Ragweed
Method in brief: as §1

[15] = test system: ryegrass, Italian (Italian ryegrass, Lolium multiflorum); experiment: Test A postemergence; conditions: Lolium multiflorum, post-emergence, 240 h, 125 g ai/ha, Postemergence; visual injury after approximately 10 d; 0 to 100 scale where 0 is no effect and 100 is complete control; read-out: Plant response rating, Ryegrass, Italian
Method in brief: as §1

[16] = test system: wheat (Triticum aestivum); experiment: Test A postemergence; conditions: Triticum aestivum, post-emergence, 240 h, 125 g ai/ha, Postemergence; visual injury after approximately 10 d; 0 to 100 scale where 0 is no effect and 100 is complete control; read-out: Plant response rating, Wheat
Method in brief: as §1

[17] = test system: barnyardgrass (Echinochloa crus-galli); experiment: Test B flooded paddy test; conditions: Echinochloa crus-galli, Flood, 250 g ai/ha; scale of 0 to 100 where 0 is no effect and 100 is complete control; read-out: Barnyardgrass plant response rating
Method in brief: (§2)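 2-leaf plants; pots flooded 3 cm over soil; cpd added to paddy water; depth held; greenhouse 13–15 d; visual rating vs controls, 0 = no effect, 100 = complete control.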

[18] = test system: ducksalad (Heteranthera limosa); experiment: Test B flooded paddy test; conditions: Heteranthera limosa, Flood, 250 g ai/ha; scale of 0 to 100 where 0 is no effect and 100 is complete control; read-out: Ducksalad plant response rating
Method in brief: as §2

[19] = test system: rice (Oryra sativa); experiment: Test B flooded paddy test; conditions: Oryza sativa, Flood, 250 g ai/ha; scale of 0 to 100 where 0 is no effect and 100 is complete control; read-out: Rice plant response rating
Method in brief: as §2

[20] = test system: sedge, umbrella (small-flower umbrella sedge, Cyperus difformis); experiment: Test B flooded paddy test; conditions: Cyperus difformis, Flood, 250 g ai/ha, read-out: Sedge, Umbrella plant response rating
Method in brief: as §2

Structure (SMILES)	pest or weed control at 125 g/ha [1] [%]	pest or weed control at 500 g/ha [1] [%]	pest or weed control at 125 g/ha [2] [%]	pest or weed control at 500 g/ha [2] [%]	pest or weed control at 125 g/ha [3] [%]	pest or weed control at 500 g/ha [3] [%]	pest or weed control at 125 g/ha [4] [%]	pest or weed control at 500 g/ha [4] [%]	pest or weed control at 125 g/ha [5] [%]	pest or weed control at 500 g/ha [5] [%]	pest or weed control at 125 g/ha [6] [%]	pest or weed control at 500 g/ha [6] [%]	pest or weed control at 125 g/ha [7] [%]	pest or weed control at 125 g/ha [8] [%]	pest or weed control at 125 g/ha [9] [%]	pest or weed control at 125 g/ha [10] [%]	Corn plant response rating (crop injury, 0 = no effect, 100 = complete kill) at 125 g/ha [11] [%]	pest or weed control at 125 g/ha [12] [%]	pest or weed control at 125 g/ha [13] [%]	pest or weed control at 125 g/ha [14] [%]	other results
COc1ccc([C@H]2CN(C)C(=O)[C@@H]2C(=O)Nc2ccccc2F)cc1C(F)(F)F [Compound 984]	90	90	100	100	100	100	40	60	0	30	70	30	30	50	100	30	80	90	0	0	pest or weed control at 125 g/ha [15]: 20%; plant injury at 125 g/ha [16]: 20%; pest or weed control at 250 g/ha [17]: 55%; pest or weed control at 250 g/ha [18]: 85%; pest or weed control at 250 g/ha [19]: 15%; pest or weed control at 250 g/ha ([20]; scale of 0 to 100 where 0 is no effect and 100 is complete control): 0%
Cc1c(F)cccc1NC(=O)[C@H]1C(=O)N(C)C[C@@H]1c1cc(F)cc(C(F)(F)F)c1 [Compound 994]	40	60	90	100	100	100	30	70	0	0	70	100	50	40	100	60	70	90	0	20	pest or weed control at 125 g/ha [15]: 70%; plant injury at 125 g/ha [16]: 70%; pest or weed control at 250 g/ha [17]: 75%; pest or weed control at 250 g/ha [18]: 100%; pest or weed control at 250 g/ha [19]: 20%; pest or weed control at 250 g/ha ([20]; 0 to 100 scale where 0 is no effect and 100 is complete control): 0%

Reference: patent US12077503B2, “Substituted cyclic amides and their use as herbicides” (FMC CORPORATION, priority 2015, dated 2024)
